Experimental data published in PubChem BioAssay AID248 (DTP/NCI, 2004).
Values joined by “and” are separate entries in the source; they are usually repeats but may differ in a detail not shown here. Identical values can stand only once. Inconclusive results and toxic doses are left out. Cut-off read from the data, not from the text of the source: active = T/C of 150% or more; inactive = T/C below 125%.

System: L1210 leukemia ip in BDF1 mice, survival T/C
Assay: NCI In Vivo Anticancer Drug Screen. Data for tumor model L1210 Leukemia (intraperitoneal) in B6D2F1 (BDF1) mice
Conditions: endpoint: mean survival time, higher = longer survival
Procedure, shortened: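 Read-out is survival time, reported as the treated-group measurement over the vehicle-control measurement.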

[1] = dose: 50.0 mg/kg/injection, schedule: Q01DX009 (ip), vehicle: Klucel (hydroxypropylcellulose) (HPC)
[2] = dose: 100.0 mg/kg/injection, schedule: Q01DX009 (ip), vehicle: Klucel (hydroxypropylcellulose) (HPC)
[3] = dose: 200.0 mg/kg/injection, schedule: Q01DX009 (ip), vehicle: Klucel (hydroxypropylcellulose) (HPC)
[4] = dose: 100.0 mg/kg/injection, schedule: Q04DX003 (ip), vehicle: Klucel (hydroxypropylcellulose) (HPC)
[5] = dose: 200.0 mg/kg/injection, schedule: Q04DX003 (ip), vehicle: Klucel (hydroxypropylcellulose) (HPC)
[6] = dose: 400.0 mg/kg/injection, schedule: Q01DX009 (ip), vehicle: Klucel (hydroxypropylcellulose) (HPC)
[7] = dose: 400.0 mg/kg/injection, schedule: Q04DX003 (ip), vehicle: Klucel (hydroxypropylcellulose) (HPC)
[8] = dose: 100.0 mg/kg/injection, schedule: Q01DX001 (ip), vehicle: saline
[9] = dose: 200.0 mg/kg/injection, schedule: Q01DX001 (ip), vehicle: saline
[10] = dose: 400.0 mg/kg/injection, schedule: Q01DX001 (ip), vehicle: saline
[11] = dose: 100.0 mg/kg/injection, schedule: Q01DX001 (ip), vehicle: saline with Tween-80
[12] = dose: 200.0 mg/kg/injection, schedule: Q01DX001 (ip), vehicle: saline with Tween-80
[13] = dose: 400.0 mg/kg/injection, schedule: Q01DX001 (ip), vehicle: saline with Tween-80
[14] = dose: 100.0 mg/kg/injection, schedule: Q04DX003 (ip), vehicle: saline with Tween-80
[15] = dose: 200.0 mg/kg/injection, schedule: Q04DX003 (ip), vehicle: saline with Tween-80
[16] = dose: 400.0 mg/kg/injection, schedule: Q04DX003 (ip), vehicle: saline with Tween-80
[17] = dose: 150.0 mg/kg/injection, schedule: Q01DX001 (ip), vehicle: other
[18] = dose: 300.0 mg/kg/injection, schedule: Q01DX001 (ip), vehicle: other

Measured: T/C

CC(C)(CBr)C(=O)N1CCN(C(=O)C(C)(C)CBr)CC1
inactive: dose: 6.2 mg/kg/injection, schedule: Q01DX Z (ip), vehicle: carboxymethylcellulose (CMC) 109 % of control | dose: 9.2 mg/kg/injection, schedule: Q01DX Z (ip), vehicle: methylcellulose (MC) 94 % of control | dose: 9.4 mg/kg/injection, schedule: Q01DX Z (ip), vehicle: carboxymethylcellulose (CMC) 118 % of control | dose: 14.0 mg/kg/injection, schedule: Q01DX Z (ip), vehicle: carboxymethylcellulose (CMC) 116 % of control | dose: 14.0 mg/kg/injection, schedule: Q01DX Z (ip), vehicle: methylcellulose (MC) 103 % of control | dose: 21.0 mg/kg/injection, schedule: Q01DX Z (ip), vehicle: carboxymethylcellulose (CMC) 121 % of control | dose: 21.0 mg/kg/injection, schedule: Q01DX Z (ip), vehicle: methylcellulose (MC) 103 % of control | dose: 42.0 mg/kg/injection, schedule: Q01DX Z (ip), vehicle: methylcellulose (MC) 111 % of control | dose: 50.0 mg/kg/injection, schedule: Q01DX Z (ip), vehicle: methylcellulose (MC) 121 % of control | dose: 68.0 mg/kg/injection, schedule: Q01DX Z (ip), vehicle: methylcellulose (MC) 98 % of control

COc1ccc([N+](=O)[O-])cc1NC(=O)Oc1ccc(F)cc1Cl
inactive: [1] 108 % of control | [2] 111 % of control | [3] 90 % of control

CCc1ccccc1NC(=O)Nc1ccccc1
inactive: [2] 94 % of control | [4] 103 % of control | [3] 98 % of control | [5] 94 % of control | [6] 105 % of control | [7] 95 % of control

COC(=O)CCC(C)=O
inactive: [8] 102 % of control | [9] 102 % of control | [10] 100 % of control

Fc1c(F)c(F)c(Oc2c(F)c(F)c(Br)c(F)c2F)c(F)c1F
inactive: [11] 88 % of control | [12] 88 % of control | [13] 88 % of control

CC(C)(C)NC(=O)NCc1cccnc1
inactive: dose: 100.0 mg/kg/injection, schedule: Q01DX009 (ip), vehicle: saline sonified 97 % of control | dose: 100.0 mg/kg/injection, schedule: Q04DX003 (ip), vehicle: saline sonified 100 % of control | dose: 200.0 mg/kg/injection, schedule: Q01DX009 (ip), vehicle: saline sonified 100 % of control | dose: 200.0 mg/kg/injection, schedule: Q04DX003 (ip), vehicle: saline sonified 87 % of control | dose: 400.0 mg/kg/injection, schedule: Q01DX009 (ip), vehicle: saline sonified 105 % of control | dose: 400.0 mg/kg/injection, schedule: Q04DX003 (ip), vehicle: saline sonified 94 % of control

CCCCCCCCCCCCCCCC(=O)N1CCCN(C(=O)CCCCCCCCCCCCCCC)C1
inactive: dose: 30.0 mg/kg/injection, schedule: Q01DX001 (ip), vehicle: saline 93 % of control | [8] 88 % of control | dose: 300.0 mg/kg/injection, schedule: Q01DX001 (ip), vehicle: saline 94 % of control

ON1CCCC1
inactive: dose: 100.0 mg/kg/injection, schedule: Q01DX009 (ip), vehicle: water 95 % of control | dose: 100.0 mg/kg/injection, schedule: Q04DX003 (ip), vehicle: water 92 % of control | dose: 200.0 mg/kg/injection, schedule: Q01DX009 (ip), vehicle: water 101 % of control | dose: 200.0 mg/kg/injection, schedule: Q04DX003 (ip), vehicle: water 92 % of control | dose: 400.0 mg/kg/injection, schedule: Q04DX003 (ip), vehicle: water 92 % of control

c1ccc(C(c2ccccc2)C2CSC2)cc1
inactive: dose: 50.0 mg/kg/injection, schedule: Q04DX002 (ip), vehicle: gum acacia 93 % of control | dose: 100.0 mg/kg/injection, schedule: Q04DX002 (ip), vehicle: gum acacia 100 % of control | dose: 200.0 mg/kg/injection, schedule: Q04DX002 (ip), vehicle: gum acacia 93 % of control

c1ccc(CCNCc2ccc(CNCCc3ccccc3)cc2)cc1
inactive: [14] 93 % of control | [15] 90 % of control

Cc1ccc(Cl)cc1NC(=O)C(Br)C(Br)c1ccccc1 (stereo unspecified)
inactive: [2] 100 % of control | [3] 96 % of control | [6] 104 % of control

CCN(CC)C(=O)COC(=O)c1cccc2[nH]ccc12
inactive: [14] 102 % of control | [15] 100 % of control | [16] 102 % of control

CCCCCCCCCCCC[N+](CC)(CC)CC(=O)O
inactive: dose: 12.5 mg/kg/injection, schedule: Q01DX009 (ip), vehicle: saline 88 % of control | dose: 25.0 mg/kg/injection, schedule: Q01DX009 (ip), vehicle: saline 97 % of control | dose: 50.0 mg/kg/injection, schedule: Q01DX009 (ip), vehicle: saline 104 % of control | dose: 50.0 mg/kg/injection, schedule: Q04DX003 (ip), vehicle: saline 111 % of control | [8] 93 % of control | [9] 98 % of control

COc1cc2c(c(OC)c1OC)-c1ccc(SC)c(=O)cc1C(N=Cc1ccccc1)CC2 (stereo unspecified)
inactive: [14] 106 % of control | [15] 90 % of control

CC(=O)Nc1ccc(Cl)cc1
inactive: dose: 50.0 mg/kg/injection, schedule: Q01DX001 (ip), vehicle: other 101 % of control | dose: 100.0 mg/kg/injection, schedule: Q01DX001 (ip), vehicle: other 98 % of control | dose: 200.0 mg/kg/injection, schedule: Q01DX001 (ip), vehicle: other 101 % of control | dose: 400.0 mg/kg/injection, schedule: Q01DX001 (ip), vehicle: other 106 % of control

CC12CC1(C)C(=O)OC2=O (stereo unspecified)
inactive: [14] 87 % of control | [15] 92 % of control

CC(=O)Oc1cc(C=O)cc(OC(C)=O)c1OC(C)=O
inactive: dose: 100.0 mg/kg/injection, schedule: Q01DX009 (ip), vehicle: saline with Tween-80 106 % of control | [14] 106 % of control | dose: 200.0 mg/kg/injection, schedule: Q01DX009 (ip), vehicle: saline with Tween-80 118 % of control | [15] 121 % of control | dose: 400.0 mg/kg/injection, schedule: Q01DX009 (ip), vehicle: saline with Tween-80 90 % of control | [16] 108 % of control

CCCCCCC(C)NCC(C)(C)OC(=O)c1ccc(N)cc1 (stereo unspecified)
inactive: dose: 75.0 mg/kg/injection, schedule: Q01DX001 (ip), vehicle: other 93 % of control | [17] 101 % of control | [18] 93 % of control

O=[N+]([O-])c1ccc(Cl)cc1/C=N\N=C1c2ccccc2-c2ccccc21
inactive: [17] 94 % of control | [18] 100 % of control

Nc1ccccc1SC1CC(=O)N(c2ccc(Br)cc2Cl)C1=O (stereo unspecified)
inactive: [1] 90 % of control and 92 % of control | [2] 91 % of control | [4] 98 % of control | [3] 93 % of control and 96 % of control and 91 % of control | [5] 93 % of control | [6] 96 % of control | [7] 93 % of control

CCCc1cnc(NCCCC(N)C(=O)O)nc1 (stereo unspecified)
inactive: dose: 25.0 mg/kg/injection, schedule: Q04DX002 (ip), vehicle: saline 95 % of control | dose: 50.0 mg/kg/injection, schedule: Q04DX002 (ip), vehicle: saline 95 % of control | dose: 100.0 mg/kg/injection, schedule: Q04DX002 (ip), vehicle: saline 89 % of control

CC12CC(c3ccoc3)OC(=O)C1CCC1(C)C2C2C=CC1(O)C(=O)O2 (stereo unspecified)
inactive: [8] 104 % of control | [9] 98 % of control | [10] 104 % of control

O=C1C=C(Nc2ccccc2)C(=O)N1c1ccccc1
inactive: [8] 95 % of control | [9] 95 % of control

CC[C@@H]1O[C@@H]([C@@H]2CC[C@](O)([C@]3(C)CC[C@@H]([C@@H](C)[C@@]4(O)CC[C@H](C)[C@@H](C[C@@]5(O)O[C@@H]([C@@H](C)[C@H](O)C[C@H]6CC[C@H](C)[C@@H]([C@@H](C)C(=O)O)O6)CC[C@@H]5C)O4)O3)O2)CC[C@@]1(C)O
inactive: dose: 0.09 mg/kg/injection, schedule: Q04DX002 (ip), vehicle: saline 93 % of control | dose: 0.19 mg/kg/injection, schedule: Q04DX002 (ip), vehicle: saline 90 % of control | dose: 0.39 mg/kg/injection, schedule: Q04DX002 (ip), vehicle: saline 87 % of control

Cn1c(=S)[nH]c2cn[nH]c2c1=O
inactive: [11] 93 % of control | [12] 97 % of control | [13] 89 % of control
